Source: ChEMBL document CHEMBL1201862, “PubChem BioAssay data set” (2004)
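Following 48 hours of exposure in 96-well plates, responses at five concentrations were used to interpolate endpoints linearly. GI50 marks 50% less growth.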 The source made the active and inactive calls. No stated cut-off is given here; in the data, active = GI50 up to about 1.1 µM and inactive = higher.

Experiments:
Assay in all cases: inhibition of tumour cell growth, NCI panel, 48 h
[1] = system: 786-0
[2] = system: ACHN
[3] = system: CCRF-CEM
[4] = system: COLO 205
[5] = system: HL-60
[6] = system: HT-29
[7] = system: KM12
[8] = system: OVCAR-4
[9] = system: SF-268
[10] = system: SK-OV-3
[11] = system: SN12C
[12] = system: UO-31
[13] = system: CAKI-1
[14] = system: DU-145
[15] = system: HOP-92
[16] = system: MCF7
[17] = system: MDA-MB-435
[18] = system: PC-3

SMILES | GI50 [1] | GI50 [2] | GI50 [3] | GI50 [4] | GI50 [5] | GI50 [6] | GI50 [7] | GI50 [8] | GI50 [9] | GI50 [10] | GI50 [11] | GI50 [12] | GI50 [13] | GI50 [14] | GI50 [15] | GI50 [16] | GI50 [17] | GI50 [18]
COc1cccc(NC(=O)CSc2nnc(-c3ccc(/N=C\c4ccc(Cl)cc4)cc3)o2)c1 | 24.5 µM (inactive) | 16.4 µM (inactive) | 26.6 µM (inactive) | 19.4 µM (inactive) | 27.7 µM (inactive) | 15.6 µM (inactive) | 14.2 µM (inactive) | 37.4 µM (inactive) | 19.4 µM (inactive) | 33.3 µM (inactive) | 21.2 µM (inactive) | 18.5 µM (inactive) |  |  |  |  |  | 
C/C(=C\c1ccc2c(c1)OCO2)[N+](=O)[O-] | 1.56 µM (inactive) | 2.01 µM (inactive) | < 0.01 µM (active) | 1.66 µM (inactive) | 1.46 µM (inactive) | 2.98 µM (inactive) | 1.54 µM (inactive) | 4.4 µM (inactive) | 3.44 µM (inactive) |  | 3.38 µM (inactive) | 1.19 µM (inactive) | 2.28 µM (inactive) | 2.23 µM (inactive) | 2.51 µM (inactive) | 0.205 µM (active) | 2.21 µM (inactive) | 2.64 µM (inactive)
O=C(O)CCC1(Br)CCCCC(Br)C1=O (configuration not stated) | > 100 µM (inactive) | > 100 µM (inactive) | 95.3 µM (inactive) | > 100 µM (inactive) | > 100 µM (inactive) | > 100 µM (inactive) | > 10 µM (inactive) | > 100 µM (inactive) | > 100 µM (inactive) | > 100 µM (inactive) | > 100 µM (inactive) | > 10 µM (inactive) | > 100 µM (inactive) |  | 32.7 µM (inactive) |  |  | 
CC1(c2cccc3ccccc23)OC(=O)c2ccccc21 (configuration not stated) | 26.2 µM (inactive) | 20.3 µM (inactive) | 14.3 µM (inactive) | 16.2 µM (inactive) | 13.4 µM (inactive) | 20.7 µM (inactive) | 25.1 µM (inactive) | 27.7 µM (inactive) | 25.5 µM (inactive) | 32.5 µM (inactive) | 22 µM (inactive) | 26 µM (inactive) | 15 µM (inactive) |  | 13.5 µM (inactive) |  |  | 
CCCCCCCCCCCCCc1nnn[nH]1 | 17.3 µM (inactive) | 19.1 µM (inactive) | 18.8 µM (inactive) | 19.4 µM (inactive) | 18.1 µM (inactive) | 18 µM (inactive) | 18.3 µM (inactive) | 18.3 µM (inactive) | 19.6 µM (inactive) | 24.7 µM (inactive) | 18.8 µM (inactive) | 16 µM (inactive) |  |  | 15.6 µM (inactive) |  |  | 
N/N=C(/Cc1nc2ccc(C(=O)c3ccccc3)cc2nc1O)C(=O)Nc1ccc([N+](=O)[O-])cc1[N+](=O)[O-] | 71.9 µM (inactive) | > 10 µM (inactive) | > 10 µM (inactive) | > 10 µM (inactive) | > 10 µM (inactive) | > 10 µM (inactive) | > 100 µM (inactive) | 27.3 µM (inactive) | > 10 µM (inactive) | 55.7 µM (inactive) | > 10 µM (inactive) | 68.2 µM (inactive) | > 100 µM (inactive) |  | > 10 µM (inactive) |  |  | 
O=c1[nH]n2c(=O)cc[nH]c2c1-c1nnns1 | > 100 µM (inactive) | > 100 µM (inactive) | > 100 µM (inactive) | > 100 µM (inactive) | > 100 µM (inactive) | > 100 µM (inactive) | > 100 µM (inactive) | > 100 µM (inactive) | > 100 µM (inactive) | > 100 µM (inactive) | > 100 µM (inactive) | > 100 µM (inactive) | > 100 µM (inactive) |  | > 100 µM (inactive) |  |  | 
Cc1ccc(/C=N/C23CC4CC(CC(C4)C2)C3)cc1 | > 100 µM (inactive) | > 100 µM (inactive) |  | > 100 µM (inactive) | > 100 µM (inactive) | > 100 µM (inactive) | > 100 µM (inactive) | > 100 µM (inactive) | > 100 µM (inactive) | > 100 µM (inactive) | > 100 µM (inactive) |  | > 100 µM (inactive) |  |  |  |  | 
C[C@]12Cc3conc3C(O)=C1CC[C@@H]1C2CC[C@@]2(C)C1CC[C@@H]2O (some centres not stated) | 16.1 µM (inactive) | 23.3 µM (inactive) | 7.62 µM (inactive) | 32.7 µM (inactive) | 2.55 µM (inactive) | 19.7 µM (inactive) | 12 µM (inactive) | 31.6 µM (inactive) | 14.6 µM (inactive) | 31.3 µM (inactive) | 28.9 µM (inactive) | 15.3 µM (inactive) | 8.24 µM (inactive) |  | 22.8 µM (inactive) |  |  | 
CC(=O)O[C@]1(C)CCC2C(C)C(=O)OC2C2C(C)[C@@H](O)CC21 (some centres not stated) | 31.4 µM (inactive) | 29.3 µM (inactive) | 23.8 µM (inactive) | 20 µM (inactive) | 14.2 µM (inactive) | 31.5 µM (inactive) | 49.8 µM (inactive) | 26.2 µM (inactive) | 33.3 µM (inactive) | 49.9 µM (inactive) | 35.6 µM (inactive) | 48.9 µM (inactive) | 47.2 µM (inactive) |  | 26.4 µM (inactive) |  |  | 
